Measurements taken from US12606529B2, “Sulfur and amide tropolone inhibitors of nucleotidyl transferases and uses therefor” (Saint Louis University, priority 2019, dated 2026).
≈ marks a conversion by molar mass, not a printed value.

Columns and labels:
human RNaseH1 = molecular target: T1, human RNaseH1 (Homo sapiens, UniProt O60930); experiment: Biochemical inhibition of human RNaseH1 activity; conditions: Table 2 amides; read-out: HuRH1 IC50
T1 sequence (O60930 1-286): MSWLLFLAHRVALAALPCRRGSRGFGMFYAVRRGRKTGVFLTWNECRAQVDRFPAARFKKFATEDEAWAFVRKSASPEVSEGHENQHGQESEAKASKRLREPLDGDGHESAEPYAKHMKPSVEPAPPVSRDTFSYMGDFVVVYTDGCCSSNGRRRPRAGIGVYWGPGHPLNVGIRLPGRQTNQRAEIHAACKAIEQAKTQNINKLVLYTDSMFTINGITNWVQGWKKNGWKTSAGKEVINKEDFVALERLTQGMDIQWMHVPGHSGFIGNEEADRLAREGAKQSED
Method in brief: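 Human enzyme (0.3 μg) with 100 nM RNA:DNA molecular-beacon substrate, 50 mM HEPES pH 8.0, 100 mM NaCl, 2 mM TCEP, compounds 0 to 500 μM, 5% DMSO; started with 5 mM MgCl2, fluorescence read at 37° C. HBV enzyme (C-terminally truncated MBP-HRHgtCΔ5) run in FRET format, monitored 90 min at 37° C., initial rates calculated.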

HSV-1 = experiment: Anti-HSV-1 replication assay (Vero cells, plaque titer); assay type: cell-based, herpes simplex virus 1; conditions: Human alphaherpesvirus 1, Vero, Table 2 amides, values separated by / are repeats; for log reduction at 5 µM: compound at 5 μM, read-out: HSV-1 suppression 5 μM
[1] = test system: C. neoformans var. grubii, KN99; experiment: C. neoformans growth inhibition assay (limiting dilution); assay type: cell-based, Cryptococcus neoformans; conditions: Cryptococcus neoformans, 48 h, Table 2 amides; 48 h, 35° C., tested 0.19 to 50 μM; read-out: C. neoformans MIC80
Method in brief: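 Starting OD650 0.001 in YNB (0.2% dextrose, 50 mM MOPS, pH 7.0) with 1% DMSO; static incubation 48 h at 35° C, then shaken and read at OD650. Growth expressed as percent of DMSO control; MIC is the lowest concentration giving 80% inhibition, triplicates over at least two independent assays.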

E. coli = experiment: Bacterial growth inhibition (E. coli); assay type: cell-based; conditions: Escherichia coli
in vitro = conditions: human, CC50 (μM), Table 2 amides; HepDES19 cells, MTT
Experimental: Cells used for toxicity and HBV studies. […] Cells were maintained in Dulbecco's modified Eagle's medium (DMEM)/F12 media supplemented with 10% fetal bovine serum (FBS) and 1% penicillin/streptomycin (P/S) with 1 μg/mL tetracycline. Synchronized expression of HBV pgRNA was induced by removing tetracycline from the culture medium.
Cytotoxicity Assays. Qualitative assessments of cytotoxicity were done visually by inspecting the cells in the primary screening assays. […] The next day the compounds were added at 0.78 to 100 μM in a final concentration of 1% (v/v) DMSO, and the cells were incubated for 24 hours under conditions identical to those employed for the viral replication inhibition assays. Mitochondrial toxicity was measured by incubating the cells with 0.25 mg/mL thiazolyl blue tetrazolium bromide (MTT, SigmaAldrich Chemical Co.), the cultures were incubated for 60 mM, metabolites were solubilized in acidic isopropanol, and absorbance was read at 570 nm. CC50 values were calculated by non-linear curve fitting using GraphPad Prism using the three-parameter variable-response log(inhibitor)-versus-response algorithm with the bottom value set to zero.

[2] = molecular target: HBV RNaseH (MBP-HRHgtCΔ5) (Hepatitis B virus genotype C subtype ayr, UniProt Q69028); experiment: Biochemical inhibition of HBV RNaseH (FRET-based RNaseH assay); parameters: a genotype C isolate which lacks the C-terminal 35 amino acids of the HBV RNaseH domain that are predicted to be unstructured; made in house; conditions: HBV RNaseH IC50 (μM), Table 2 amides
HBV RNaseH (MBP-HRHgtCΔ5), sequence (Q69028 691-808, stated change not applied): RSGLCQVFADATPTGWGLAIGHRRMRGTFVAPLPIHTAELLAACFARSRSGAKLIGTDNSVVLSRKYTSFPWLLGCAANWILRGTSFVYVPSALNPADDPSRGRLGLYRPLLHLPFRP
Experimental: Biochemical inhibition of human RNaseH1 activity. Quantitative inhibition of the human RNaseH1 in the biochemical assays was assessed using a molecular beacon assay as described previously (Edwards et al., 2017). Recombinant human RNaseH 1 (0.3 μg) was incubated with 100 nM RNA:DNA substrate, 50 mM HEPES pH 8.0, 100 mM NaCl, 2 mM Tris(2-carboxyethyl)phosphine hydrochloride (TCEP), 0.05% Tween20, 5 units of RNaseOut, test compounds (0 to 500 μM), and 5% DMSO in a 100 μL reaction volume. The substrate was formed by annealing a complementary RNA oligonucleotide to a hairpin DNA oligonucleotide to hold the hairpin DNA oligonucleotide in an open conformation. The DNA oligonucleotide has a 5′ fluorescein reporter and a 3′ black hole quencher. […] Reactions were initiated with 5 mM MgCl2 and fluorescence was read using a Synergy HTS multi-mode plate reader at 37° C. […] Quantitative inhibition of the human RNaseH1 in biochemical assays was assessed using a FRET-based RNaseH assay under conditions previously reported for an RNaseH molecular beacon assay (Edwards et al., 2017). […] Cleavage of the RNA strand released the fluorescein from quenching, increasing fluorescence. Reactions were monitored for 90 min at 37° C. in a plate reader and initial reaction rates were calculated. […]

| SMILES | IC50 (human RNaseH1) | log reduction at 1 µM (HSV-1; compound at 1 μM, read-out: HSV-1 suppression 1 μM) | log reduction at 5 µM (HSV-1) | MIC80 [1] | MIC80 (E. coli) | CC50 at 24 h (in vitro) | IC50 [2] |
| --- | --- | --- | --- | --- | --- | --- | --- |
| Cc1cc(O)c(=O)c(O)cc1C(=O)NCCc1ccccc1 [compound 710] | 32.3 ± 3.2 µM | 0.15 | 1.69 | 2.5 µM (≈ 0.748 µg/mL) | 30 µM (≈ 8.98 µg/mL) | 4.5 ± 3 µM | – |
| Cc1cc(O)c(=O)c(O)cc1C(=O)Nc1ccc(OCc2ccccc2)cc1 [compound 837] | 625 ± 451 µM | – | 4.09 | 4.5 µM (≈ 1.7 µg/mL) | – | 8.7 ± 3.4 µM | 118 ± 88.7 µM |
